Among the data in patent US20050148671A1, “(2S)-amino(phenyl)acetic acid and derivatives as alpha2delta voltage-gated calcium channel ligands” (priority 2004, published 2005) are EC50 values, retold here.

The experiment has as its system mechanical allodynia in spinal nerve ligated rats. The experiment in a line: Determination of analgesic effect: mechanical allodynia (von Frey) after L5/L6 spinal nerve ligation. The conditions noted are these: oral, in PEG400, 60 minutes before von Frey testing; percentage of maximal protective effect relative to vehicle; male Sprague Dawley rats.

SMILES strings stand for the structures.

Source text: Male Sprague Dawley rats (80-100 g) were purchased from Charles River (Portage, Mich.). Prior to surgery, animals were group-housed and maintained in a temperature regulated environment (lights on between 7:00 a.m. and 8:00 p.m.). Following nerve ligation surgery, animals were group housed. Two weeks after surgery, experimentation began. Rats had access to food and water ad libitum.
Briefly, an incision was made on the dorsal portion of the hip and the muscle was blunt dissected to reveal the spinal processes. The L6 transverse process was removed, and the left L5 and L6 spinal nerves were tightly ligated with a 5.0 braided silk suture. The wound was cleaned, the membrane sewn with a 4.0 dissolvable Vicryl suture and the skin closed with wound clips.
For the assessment of neuropathic pain, mechanical allodynia in the affected paw of animals that had undergone spinal nerve ligation was evaluated using von Frey filaments. […] Using the Dixons Up-Down method, a baseline level of allodynia was determined to have a withdrawal threshold of 3 g of pressure.
Rats were placed in groups labeled A-D with six rats per group. Group A was administered 1.0 mL/kg of vehicle (100% PEG400). […] Data are expressed as the percentage of maximal protective effect relative to the control (vehicle treated) animals.

Regarding `NCC1(CC(=O)O)CCCCC1` [Gabapentin], the EC50 was 160 µmol/kg. For the molecule `N[C@H](C(=O)O)c1ccccc1` [(2S)-amino(phenyl)acetic acid], the EC50 is 50 µmol/kg.
